The target of experiment [1] is T1, NK1 receptors (Homo sapiens, UniProt P25103). In words: NK1 receptor functional assay (antagonist effect, intracellular Ca2+, fluorimetry). On the set-up: Human astrocytoma U373MG cells do endogenously express NK1 receptors; endogenous in cells; host or cells: U373MG human astrocytoma cells. Format: cell-based. Particulars: result in words. On the procedure:
(§1) Cellular antagonist effect was calculated as a %-inhibition of reference agonist response for each target.
Human NK1 receptor antagonistic activity assays were performed by measuring antagonistic effects of the compounds of the formula on the reduction agonist induced intracellular [Ca^2+] calcium concentrations in the human astrocytoma cell line U373MG using fluorimetric detection. Human astrocytoma U373MG cells do endogenously express NK1 receptors and were used in the assay according to Eistetter, H.R. et al. (1992), Glia, 6: 89-95 and [Sar^9,Met(O2)^11]-Substance P was used as agonistic stimulus of the NK1 receptor in the cells and assay. Relevant particulars of the assay are outlined in the table below.
(§2) For the antagonists, the apparent dissociation constants (KB ) were calculated using the modified Cheng Prusoff equation KB = (IC50)/(1 + (A/EC50A)) [formula] where A = concentration of reference agonist in the assay, and EC50A = EC50 value of the reference agonist.

The target of experiment [2] is T2, Human NK3 receptor (Homo sapiens, UniProt P29371).
T2 sequence (P29371 1-465): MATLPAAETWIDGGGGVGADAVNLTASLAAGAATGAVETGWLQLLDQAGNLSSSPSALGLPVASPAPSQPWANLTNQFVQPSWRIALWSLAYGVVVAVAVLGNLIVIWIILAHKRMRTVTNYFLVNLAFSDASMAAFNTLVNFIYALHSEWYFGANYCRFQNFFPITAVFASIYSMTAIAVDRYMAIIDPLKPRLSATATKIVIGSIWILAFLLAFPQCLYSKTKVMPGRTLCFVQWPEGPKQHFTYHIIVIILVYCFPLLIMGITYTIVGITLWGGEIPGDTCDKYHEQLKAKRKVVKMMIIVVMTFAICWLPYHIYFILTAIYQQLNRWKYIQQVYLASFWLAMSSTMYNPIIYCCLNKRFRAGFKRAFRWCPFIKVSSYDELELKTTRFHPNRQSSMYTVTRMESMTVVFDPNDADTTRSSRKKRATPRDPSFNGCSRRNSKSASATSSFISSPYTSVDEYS
In words: NK3 receptor functional assay (antagonist effect, intracellular Ca2+, fluorimetry). Conditions: result in words; human NK3 receptors. Type of experiment: cell-based. On the set-up: expressed in transfected cells; host or cells: CHO cells. The protocol:
as §1
Human NK3 receptor antagonistic activity was determined by measuring antagonistic effects of the compounds of the formula on the reduction of agonist induced intracellular [Ca^2+] concentrations in CHO cells recombinantly expressing […] using an fluorimetric detection method. The assay was adapted from Medhurst, A.D. et al. (1999), Brit. J. Pharmacol., 128: 627-636. As an agonist to induce intracellular [Ca^2+] [MePhe^7]-NKB was used as outlined in the overview table below.
as §2

Experiment [3] deals with T2, Human NK3 receptor. Put plainly: NK3 receptor binding assay (antagonist radioligand, scintillation counting). Conditions: for binding affinities: result in words, human NK3 receptors; for nH: NK3(h) (antagonist radioligand), Hill coefficient of competition curve. On the set-up: expressed in transfected cells; host or cells: CHO cells (membrane preparations).
Description: Compound binding was calculated as a %-inhibition of the binding of a radioactively labeled ligand specific for each target.
NK3 receptor binding affinities of the compounds of the invention were determined by an scintillation counting and using membrane preparations of CHO cells recombinantly expressing human NK3 receptors (as described by Sarau, H.M. et al. (1997), J. Pharmacol. Exp. Ther., 281: 1303-1311).
The results are expressed as a percent of control specific binding (measured specific binding)/(control specific binding)*100 [formula] and as a percent inhibition of control specific binding 100−((measured specific binding)/(control specific binding)*100) [formula] obtained in the presence of the test compounds.
The IC50 values (concentration causing a half-maximal inhibition of control specific binding) and Hill coefficients (nH) were determined by non-linear regression analysis of the competition curves generated with mean replicate values using Hill equation curve fitting Y = D + [(A−D)/(1 + ((C/C50))^nH)] [formula] where Y = specific binding, A = left asymptote of the curve, D = right asymptote of the curve, C = compound concentration, C50 =IC50, and nH = slope factor. This analysis was performed using software developed at Cerep (Hill software) and validated by comparison with data generated by the commercial software SigmaPlot® 4.0 for Windows® (^© 1997 by SPSS Inc.).
The inhibition constants (Ki) were calculated using the Cheng Prusoff equation Ki = (IC50)/((1+L/KD)) [formula] where L = concentration of radioligand in the assay, and KD = affinity of the radioligand for the receptor. A scatchard plot is used todetermine the KD.
The target of experiment [4] is T1, NK1 receptors. In words: NK1 receptor binding assay (agonist radioligand, scintillation counting). The arrangement: that is endogenously expressing human NK1 receptors; endogenous in cells; host or cells: U373 MG human astrocytoma cells (membrane preparations). Conditions: NK1(h) (agonist radioligand); Hill coefficient of competition curve. The text has this:
A scatchard plot is used todetermine the KD.

T1 sequence (P25103 whole entry): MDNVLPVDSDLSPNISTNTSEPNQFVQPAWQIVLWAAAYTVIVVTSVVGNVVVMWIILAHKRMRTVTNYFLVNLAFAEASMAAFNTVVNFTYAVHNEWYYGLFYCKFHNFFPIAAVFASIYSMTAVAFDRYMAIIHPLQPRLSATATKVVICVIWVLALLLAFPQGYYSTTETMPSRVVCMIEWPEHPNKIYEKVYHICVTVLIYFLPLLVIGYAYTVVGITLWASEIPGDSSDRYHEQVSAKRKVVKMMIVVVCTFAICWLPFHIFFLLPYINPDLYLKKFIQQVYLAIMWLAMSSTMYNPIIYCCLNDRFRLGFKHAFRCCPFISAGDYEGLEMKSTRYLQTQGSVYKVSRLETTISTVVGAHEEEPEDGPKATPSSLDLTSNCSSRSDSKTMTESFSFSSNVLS

For `Cc1cc(F)ccc1-c1cc(N2C[C@H]3COCC[N+]3([O-])C[C@H]2CO)ncc1N(C)C(=O)C(C)(C)c1cc(C(F)(F)F)cc(C(F)(F)F)c1` (stereo partly drawn) [compound of formula (II), N-[6-[(7S,9aS)-7-(hydroxymethyl)-5-oxido-3,4,6,7,9,9a-hexahydro-1H-pyrazino[2,1-c][1,4]oxazin-5-ium-8-yl]-4-(4-fluoro-2-methyl-phenyl)-3-pyridyl]-2-[3,5-bis(trifluoromethyl)phenyl]-N,2-dimethyl-propanamide], the antagonistic activities result at NK1 receptors [1] and at Human NK3 receptor [2] was “significant” each time. Besides, the binding affinities result on Human NK3 receptor [3] is “significant”.
As to `CC1CN2C[C@@H](CO)N(c3cc(-c4ccc(F)cc4CO)c(N(C)C(=O)C(C)(C)c4cc(C(F)(F)F)cc(C(F)(F)F)c4)cn3)C[C@H]2CO1` (stereo partly drawn) [compound of formula (III), 2-[3,5-bis(trifluoromethyl)phenyl]-N-{4-[4-fluoro-2-(hydroxymethyl)phenyl]-6-[(7S,9aS)-7-(hydroxymethyl)-3-methylhexahydropyrazino[2,1-c][1,4]oxazin-8(1H)-yl]pyridin-3-yl}-N,2-dimethylpropanamide], the antagonistic activities result at NK1 receptors [1] and at Human NK3 receptor [2] was “significant” throughout. Besides, the nH at NK1 receptors [4] and on Human NK3 receptor [3] was 1 throughout. In addition, the binding affinities result on Human NK3 receptor [3] is on record as “significant”.
For `Cc1cc(F)ccc1-c1cc(N2C[C@H]3COC(C)CN3C[C@H]2CO)ncc1N(C)C(=O)C(C)(C)c1cc(C(F)(F)F)cc(C(F)(F)F)c1` (stereo partly drawn) [compound of formula (IV), 2-[3,5-bis(trifluoromethyl)phenyl]-N-{4-(4-fluoro-2-methylphenyl)-6-[(7S,9aS)-7-(hydroxymethyl)-3-methylhexahydropyrazino[2,1-c][1,4]oxazin-8(1H)-yl]pyridin-3-yl}-N,2-dimethylpropanamide], the antagonistic activities entry at NK1 receptors [1] and on Human NK3 receptor [2] was “significant” each time. The results for the nH at NK1 receptors [4] and on Human NK3 receptor [3] were 1.2 and 1.3, respectively. Moreover, the binding affinities result on Human NK3 receptor [3] is given as “significant”.
As to `CN(C(=O)C(C)(C)c1cc(C(F)(F)F)cc(C(F)(F)F)c1)c1cnc(N2C[C@H]3COCCN3C[C@H]2CO)cc1-c1ccc(F)cc1CO` [compound of formula (V), 2-[3,5-bis(trifluoromethyl)phenyl]-N-{4-[4-fluoro-2-(hydroxymethyl)phenyl]-6-[(7S,9aS)-7-(hydroxymethyl)hexahydropyrazino[2,1-c][1,4]oxazin-8(1H)-yl]pyridin-3-yl}-N,2-dimethylpropanamide], the antagonistic activities entry at NK1 receptors [1] and at Human NK3 receptor [2] was “significant” each time. Also, the binding affinities result at Human NK3 receptor [3] was “significant”.

For the origin of these results see patent EP4431512A1, “NOVEL DUAL NK-1/NK-3 RECEPTOR ANTAGONISTS” (Bayer Consumer Care AG, priority 2023, dated 2024).
